Here are results for 21 molecules from patent US9452986B2, “6-heteroaryloxy- or 6-aryloxy-quinoline-2-carboxamides and method of use” (AbbVie Inc., priority 2014, dated 2016).

Like-named read-outs stand apart in the source and are kept apart here. A value given as a limit tells only on which side of the number the result lay.

The target in one test is recombinant human Nav1.7 (Homo sapiens (Human), UniProt Q15858). The test is described as follows: FRET-based membrane potential assay, recombinant human sodium channel Nav1.7. Type of test: cell-based. The gist of the method:
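Channel activation used veratridine at its EC80, set by a dilution curve each experiment, together with Leiurus scorpion venom, added 3 min after compound. Membrane-potential ratio signals from FLIPR Tetra in HEPES-buffered HBSS were fitted to a four-parameter Hill equation for percent inhibition and IC50.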

The test system of a further test is osteoarthritic rats. The test is described as follows: Osteoarthritic (OA) pain induced by sodium monoiodoacetate (MIA), hind limb grip force. The class given is in vivo, rat. The conditions noted are these: rat, 20 days following MIA injection, hind limb grip force; for inhibition in vivo at 30 mg/kg / inhibition in vivo at 10 mg/kg: Rattus norvegicus, 480 h, read-out: OA MPE. The method, then:
Osteoarthritic (OA) Pain Induced by Sodium Monoiodoacetate (MIA)
Pain behavior was assessed by measurement of hind limb grip force (GF) in adult osteoarthritic rats. Male Sprague Dawley rats, obtained from Charles River Laboratories, (Wilmington, Mass.), weighing 150-175 g, were injected in the unilateral knee join with a single intra-articular injection of sodium monoiodoacetate (MIA, 3 mg/rat). All rats were tested at 20 days following MIA injection. A behavioral measure of activity-induced pain was carried out. Measurements of the peak hind limb grip force were conducted by recording the maximum compressive force (CFmax), in grams of force, exerted on a hind limb strain gauge setup, in a commercially available grip force measurement system (Columbus Instruments, Columbus, Ohio).
During testing, each rat was gently restrained by grasping it around its rib cage and then allowed to grasp the wire mesh frame attached to the strain gauge. The experimenter then moved the animal in a rostral-to-caudal direction until the grip was broken. Each rat was sequentially tested twice at an approximately 2-3 minute interval to obtain a raw mean grip force (CFmax). This raw mean grip force data was in turn converted to a maximum hindlimb cumulative compressive force (CFmax), as the grams of force/kg of body weight, for each animal.
For evaluating the compound effects, the hind limb grip force was conducted 20 days following the intra-articular injection of MIA. A group of age-matched naïve (not injected with MIA) animals was added as a comparator to the drug-dosed groups. The vehicle control response for each group of MIA-treated animals was defined as the 0% response (0% effect), whereas the naïve control group was defined as the normal response and as 100% effect. The % effect for each dose group was expressed as % return of response to normalcy, compared to the naïve group. A percent maximal possible effect (% MPE) of testing compound was calculated according to the formula: (Treatment CFmax−Vehicle CFmax)/Vehicle CFmax]×100). Higher % effect numbers indicate increased relief from the pain in the model, with 100% indicating a return to the level of response seen in normal (non-osteoarthritic) animals. All experiments evaluating drug effects in this model were conducted in a randomized blinded fashion.
The animals were housed in Association for Assessment and Accreditation of Laboratory Animal Care (AAALAC) approved facilities at AbbVie Inc. in a temperature-regulated environment under a controlled 12-hour light-dark cycle, with lights on at 6:00 a.m. Food and water were available ad libitum at all times except during testing. All testing was done following procedures outlined in protocols approved by AbbVie Inc.'s Institutional Animal Care and Use Committee.

The target in a further test is recombinant human Nav1.8 (Homo sapiens (Human), UniProt Q9Y5Y9). The test is described as follows: FRET-based membrane potential assay, recombinant human sodium channel Nav1.8. Type of test: cell-based.
Setting [1] is: HEK293 cells stably expressing recombinant human Nav1.8, veratridine + scorpion venom depolarization.
Setting [2] is: HEK293 cells stably expressing recombinant human Nav1.7, veratridine + scorpion venom depolarization, read-out: FRET-Membrane Potential Nav1.7 IC50.
Where [3] appears, read: read-out: FRET-Membrane Potential Nav1.7 IC50.

Chain of recombinant human Nav1.8 (Q9Y5Y9 whole entry): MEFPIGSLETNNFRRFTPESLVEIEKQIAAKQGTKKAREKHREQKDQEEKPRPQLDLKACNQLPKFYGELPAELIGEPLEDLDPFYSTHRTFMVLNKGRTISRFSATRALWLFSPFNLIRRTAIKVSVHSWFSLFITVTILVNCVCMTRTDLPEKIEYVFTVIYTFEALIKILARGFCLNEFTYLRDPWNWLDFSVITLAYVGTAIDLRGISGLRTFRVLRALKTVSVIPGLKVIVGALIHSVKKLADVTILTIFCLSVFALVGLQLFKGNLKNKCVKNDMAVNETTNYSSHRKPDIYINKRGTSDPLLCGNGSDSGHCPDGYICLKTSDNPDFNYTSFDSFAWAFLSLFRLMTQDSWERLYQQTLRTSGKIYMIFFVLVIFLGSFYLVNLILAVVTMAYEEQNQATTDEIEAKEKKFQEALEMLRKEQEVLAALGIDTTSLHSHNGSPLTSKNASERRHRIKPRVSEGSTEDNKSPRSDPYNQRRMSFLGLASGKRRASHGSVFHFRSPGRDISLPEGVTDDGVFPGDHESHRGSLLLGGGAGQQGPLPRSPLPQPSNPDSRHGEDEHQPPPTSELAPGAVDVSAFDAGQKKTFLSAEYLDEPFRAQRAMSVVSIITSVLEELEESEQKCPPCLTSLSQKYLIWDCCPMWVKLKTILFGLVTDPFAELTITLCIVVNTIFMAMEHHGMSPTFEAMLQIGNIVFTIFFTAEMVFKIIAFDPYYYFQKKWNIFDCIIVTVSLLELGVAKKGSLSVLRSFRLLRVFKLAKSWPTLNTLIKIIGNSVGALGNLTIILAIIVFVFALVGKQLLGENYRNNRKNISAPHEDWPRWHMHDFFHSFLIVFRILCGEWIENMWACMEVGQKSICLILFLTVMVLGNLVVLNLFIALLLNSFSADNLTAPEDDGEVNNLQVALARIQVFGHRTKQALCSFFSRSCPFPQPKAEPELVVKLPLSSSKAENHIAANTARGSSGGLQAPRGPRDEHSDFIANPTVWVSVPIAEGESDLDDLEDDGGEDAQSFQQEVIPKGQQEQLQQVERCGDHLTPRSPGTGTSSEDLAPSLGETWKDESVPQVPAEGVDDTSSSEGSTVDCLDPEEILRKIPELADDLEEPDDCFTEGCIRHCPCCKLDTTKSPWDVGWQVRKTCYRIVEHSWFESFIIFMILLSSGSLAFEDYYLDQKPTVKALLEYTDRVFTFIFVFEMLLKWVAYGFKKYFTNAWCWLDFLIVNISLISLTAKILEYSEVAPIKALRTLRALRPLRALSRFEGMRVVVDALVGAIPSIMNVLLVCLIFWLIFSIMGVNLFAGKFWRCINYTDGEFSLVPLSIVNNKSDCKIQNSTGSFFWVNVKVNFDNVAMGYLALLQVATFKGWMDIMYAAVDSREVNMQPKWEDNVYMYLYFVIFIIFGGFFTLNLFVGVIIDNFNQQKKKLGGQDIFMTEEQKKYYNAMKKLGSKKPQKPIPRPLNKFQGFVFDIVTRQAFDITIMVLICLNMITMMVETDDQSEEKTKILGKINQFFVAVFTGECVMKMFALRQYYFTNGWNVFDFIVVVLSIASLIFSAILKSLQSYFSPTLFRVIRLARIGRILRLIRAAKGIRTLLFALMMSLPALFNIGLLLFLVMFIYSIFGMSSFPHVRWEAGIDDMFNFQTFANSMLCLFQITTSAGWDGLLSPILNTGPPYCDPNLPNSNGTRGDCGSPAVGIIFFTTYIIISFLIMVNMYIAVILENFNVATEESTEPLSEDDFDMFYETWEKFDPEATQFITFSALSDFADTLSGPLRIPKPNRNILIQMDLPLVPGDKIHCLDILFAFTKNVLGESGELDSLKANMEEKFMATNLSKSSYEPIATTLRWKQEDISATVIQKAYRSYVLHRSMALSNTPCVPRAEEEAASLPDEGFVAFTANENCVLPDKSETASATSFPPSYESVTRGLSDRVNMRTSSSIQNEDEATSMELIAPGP
Chain of recombinant human Nav1.7 (Q15858 whole entry): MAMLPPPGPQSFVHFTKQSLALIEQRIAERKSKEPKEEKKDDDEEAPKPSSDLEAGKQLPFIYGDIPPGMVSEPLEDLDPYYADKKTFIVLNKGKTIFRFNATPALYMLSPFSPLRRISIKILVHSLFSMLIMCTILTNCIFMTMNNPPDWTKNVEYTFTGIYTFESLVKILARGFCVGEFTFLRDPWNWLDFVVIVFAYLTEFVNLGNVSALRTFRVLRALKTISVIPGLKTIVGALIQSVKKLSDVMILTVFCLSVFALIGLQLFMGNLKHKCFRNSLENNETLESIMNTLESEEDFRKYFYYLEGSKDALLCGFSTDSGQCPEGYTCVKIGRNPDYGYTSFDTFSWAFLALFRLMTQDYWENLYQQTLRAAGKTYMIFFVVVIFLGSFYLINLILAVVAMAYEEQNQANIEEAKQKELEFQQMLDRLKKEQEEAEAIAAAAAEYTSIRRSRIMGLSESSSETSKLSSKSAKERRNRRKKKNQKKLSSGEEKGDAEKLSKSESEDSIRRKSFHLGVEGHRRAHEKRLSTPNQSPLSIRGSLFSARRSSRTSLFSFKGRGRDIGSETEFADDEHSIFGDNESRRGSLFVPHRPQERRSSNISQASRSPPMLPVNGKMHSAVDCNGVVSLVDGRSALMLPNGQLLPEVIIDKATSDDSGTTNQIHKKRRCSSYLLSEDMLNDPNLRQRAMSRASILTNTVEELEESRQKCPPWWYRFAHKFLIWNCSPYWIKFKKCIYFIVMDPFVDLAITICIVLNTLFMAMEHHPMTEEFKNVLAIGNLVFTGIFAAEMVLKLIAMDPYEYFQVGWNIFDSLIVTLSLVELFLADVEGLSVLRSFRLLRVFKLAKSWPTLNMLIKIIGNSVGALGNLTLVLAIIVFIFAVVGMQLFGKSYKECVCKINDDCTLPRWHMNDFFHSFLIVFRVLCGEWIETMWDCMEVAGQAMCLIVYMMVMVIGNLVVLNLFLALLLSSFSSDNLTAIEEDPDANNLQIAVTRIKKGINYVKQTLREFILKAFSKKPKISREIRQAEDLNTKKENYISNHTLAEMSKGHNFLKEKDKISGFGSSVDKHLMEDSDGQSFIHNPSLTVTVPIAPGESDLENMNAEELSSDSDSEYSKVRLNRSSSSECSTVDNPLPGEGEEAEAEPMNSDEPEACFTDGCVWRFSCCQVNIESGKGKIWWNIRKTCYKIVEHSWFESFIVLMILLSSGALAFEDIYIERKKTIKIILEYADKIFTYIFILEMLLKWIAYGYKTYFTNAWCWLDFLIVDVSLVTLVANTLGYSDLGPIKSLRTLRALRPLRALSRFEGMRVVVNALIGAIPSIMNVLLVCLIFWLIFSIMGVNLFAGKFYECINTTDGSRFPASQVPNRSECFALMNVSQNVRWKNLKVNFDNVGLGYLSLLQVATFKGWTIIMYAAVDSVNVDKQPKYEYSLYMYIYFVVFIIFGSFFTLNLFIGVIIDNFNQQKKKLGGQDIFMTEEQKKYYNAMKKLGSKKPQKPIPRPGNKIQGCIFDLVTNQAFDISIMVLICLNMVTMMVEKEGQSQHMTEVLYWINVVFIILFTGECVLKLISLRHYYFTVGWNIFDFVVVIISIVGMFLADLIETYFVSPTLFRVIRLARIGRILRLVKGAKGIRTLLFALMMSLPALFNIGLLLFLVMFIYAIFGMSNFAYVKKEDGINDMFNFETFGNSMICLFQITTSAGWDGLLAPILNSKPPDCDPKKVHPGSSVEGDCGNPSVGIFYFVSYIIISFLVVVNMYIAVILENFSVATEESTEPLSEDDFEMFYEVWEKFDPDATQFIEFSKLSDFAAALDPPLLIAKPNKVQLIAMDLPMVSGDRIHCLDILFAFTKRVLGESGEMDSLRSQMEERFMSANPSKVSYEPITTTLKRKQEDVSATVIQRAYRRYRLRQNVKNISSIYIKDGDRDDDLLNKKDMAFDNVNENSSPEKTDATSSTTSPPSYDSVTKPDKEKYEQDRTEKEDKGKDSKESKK

Broadly, the IC50 is the concentration at which inhibition is half-maximal. With `O=C(c1ccc2cc(Oc3ccc(C(F)(F)F)cn3)ccc2n1)N1CCNCC1C(F)F` (single isomer, unassigned) [Example 72, [(2S*)-2-(difluoromethyl)piperazin-1-yl](6-{[5-(trifluoromethyl)pyridin-2-yl]oxy}quinolin-2-yl)methanone], the IC50 came out at 2.73 µM on recombinant human Nav1.7 (FRET-Membrane Potential Nav1.7 IC50) and 3.84 µM on recombinant human Nav1.8 (setting [1]). Besides, the inhibition in vivo at 30 mg/kg with osteoarthritic rats (OA dose 30 mg/kg) stood at 11%.

For the molecule `CN1CC(NC(=O)c2ccc3cc(Oc4ccc(C(F)(F)F)cn4)ccc3n2)CC1=O` (single isomer, unassigned) [Example 73, N-[(3R*)-1-methyl-5-oxopyrrolidin-3-yl]-6-{[5-(trifluoromethyl)pyridin-2-yl]oxy}quinoline-2-carboxamide], the IC50 on recombinant human Nav1.7 (setting [2]) was 1.44 µM; on recombinant human Nav1.8 (setting [1]), 1.7 µM. Moreover, in the test on osteoarthritic rats (OA dose 30 mg/kg), the inhibition in vivo at 30 mg/kg worked out at 66%.

For `CN1CC(NC(=O)c2ccc3cc(Oc4ccc(C(F)(F)F)cn4)ccc3n2)CC1=O` (single isomer, unassigned) [Example 74, N-[(3S*)-1-methyl-5-oxopyrrolidin-3-yl]-6-{[5-(trifluoromethyl)pyridin-2-yl]oxy}quinoline-2-carboxamide], the results for the 50% inhibitory concentration (IC50) on recombinant human Nav1.7 (setting [2]) and on recombinant human Nav1.8 (setting [1]) were 0.863 µM and 1.88 µM, respectively. Moreover, the “OA MPE” value in the test with osteoarthritic rats (OA dose 30 mg/kg) is 69%.

`O=C(c1ccc2cc(Oc3ccc(C(F)(F)F)cn3)ccc2n1)N1CC(O)C1` [Example 18, (3-hydroxyazetidin-1-yl)(6-{[5-(trifluoromethyl)pyridin-2-yl]oxy}quinolin-2-yl)methanone]: the IC50 at recombinant human Nav1.7 (setting [2]) amounted to 2.2 µM; at recombinant human Nav1.8 it was 5.34 µM. Moreover, in the test with osteoarthritic rats (OA dose 10 mg/kg), the inhibition in vivo at 10 mg/kg amounted to 23%.

For the molecule `O=C(c1ccc2cc(Oc3ccc(C(F)(F)F)nc3)ccc2n1)N1CCNCC1` [Example 19, piperazin-1-yl(6-{[6-(trifluoromethyl)pyridin-3-yl]oxy}quinolin-2-yl)methanone], the IC50 on recombinant human Nav1.7 (setting [2]) turned out to be 1.26 µM; at recombinant human Nav1.8 (setting [1]), 3.96 µM. Moreover, the inhibition in vivo at 30 mg/kg in the test with osteoarthritic rats (OA dose 30 mg/kg) came out at 64%.

Take `O=C(c1ccc2cc(Oc3ccc(C(F)(F)F)cn3)ccc2n1)N1CCNC(C(F)(F)F)C1` (stereo not drawn) [Example 20, [3-(trifluoromethyl)piperazin-1-yl](6-{[5-(trifluoromethyl)pyridin-2-yl]oxy}quinolin-2-yl)methanone]: the IC50 is 10.5 µM at recombinant human Nav1.7 (setting [2]) and 3.23 µM at recombinant human Nav1.8 (setting [1]). The inhibition in vivo at 10 mg/kg in the test on osteoarthritic rats (OA dose 10 mg/kg) was found to be 24%.

Regarding `O=C(NC1CCC(F)(F)CC1)c1ccc2cc(Oc3ccc(C(F)(F)F)cn3)ccc2n1` [Example 23, N-(4,4-difluorocyclohexyl)-6-{[5-(trifluoromethyl)pyridin-2-yl]oxy}quinoline-2-carboxamide], the IC50 on recombinant human Nav1.7 (setting [2]) was 1.45 µM; on recombinant human Nav1.8 (setting [1]), over 20 µM. The inhibition in vivo at 30 mg/kg in the test on osteoarthritic rats (OA dose 30 mg/kg) came out at 83%.

Regarding `O=C(c1ccc2cc(Oc3ccc(C(F)(F)F)cn3)ccc2n1)N1CCNCC1C(F)F` (stereo not drawn) [Example 25, [2-(difluoromethyl)piperazin-1-yl](6-{[5-(trifluoromethyl)pyridin-2-yl]oxy}quinolin-2-yl)methanone], the values for the IC50 at recombinant human Nav1.7 (setting [3]) and at recombinant human Nav1.8 (setting [1]) were 1.75 µM and 3.83 µM, respectively. For the same molecule, the inhibition in vivo at 30 mg/kg with osteoarthritic rats (OA dose 30 mg/kg) was determined as 102%.

Consider `O=C(c1ccc2cc(Oc3ccc(C(F)(F)F)cn3)ccc2n1)N1CCN(CCO)CC1` [Example 28, [4-(2-hydroxyethyl)piperazin-1-yl](6-{[5-(trifluoromethyl)pyridin-2-yl]oxy}quinolin-2-yl)methanone], for which the IC50 at recombinant human Nav1.7 (setting [2]) was found to be 3.06 µM; on recombinant human Nav1.8 (setting [1]) it was 4.22 µM. For the same molecule, the inhibition in vivo at 10 mg/kg in the test with osteoarthritic rats (OA dose 10 mg/kg) is 16%.

As for `N[C@@H]1[C@H]2CN(C(=O)c3ccc4cc(Oc5ccc(C(F)(F)F)cn5)ccc4n3)C[C@@H]12` [Example 36, meso-[(1R,5S,6s)-6-amino-3-azabicyclo[3.1.0]hex-3-yl](6-{[5-(trifluoromethyl)pyridin-2-yl]oxy}quinolin-2-yl)methanone], the IC50 is 0.727 µM on recombinant human Nav1.7 (setting [2]) and 1.42 µM on recombinant human Nav1.8 (setting [1]). Also, the “OA MPE” value with osteoarthritic rats (OA dose 10 mg/kg) amounted to 55%.

On to `O=C(NCC(=O)N1CCCC1)c1ccc2cc(Oc3ccc(C(F)(F)F)cn3)ccc2n1` [Example 44, N-[2-oxo-2-(pyrrolidin-1-yl)ethyl]-6-{[5-(trifluoromethyl)pyridin-2-yl]oxy}quinoline-2-carboxamide], for which, in the test with osteoarthritic rats (OA dose 10 mg/kg), the inhibition in vivo at 10 mg/kg is 42%. Moreover, the IC50 on recombinant human Nav1.8 was 0.937 µM.

On to `CCN1CC(NC(=O)c2ccc3cc(Oc4ccc(C(F)(F)F)cn4)ccc3n2)CC1=O` (stereo not drawn) [Example 45, N-(1-ethyl-5-oxopyrrolidin-3-yl)-6-{[5-(trifluoromethyl)pyridin-2-yl]oxy}quinoline-2-carboxamide], for which the IC50 turned out to be 0.325 µM at recombinant human Nav1.7 (setting [2]) and 0.468 µM on recombinant human Nav1.8 (setting [1]). Besides, the inhibition in vivo at 30 mg/kg with osteoarthritic rats (OA dose 30 mg/kg) worked out at 17%.

In the case of `CCN1CC(NC(=O)c2ccc3cc(Oc4ccc(C(F)F)cn4)ccc3n2)CC1=O` (stereo not drawn) [Example 46, 6-{[5-(difluoromethyl)pyridin-2-yl]oxy}-N-(1-ethyl-5-oxopyrrolidin-3-yl)quinoline-2-carboxamide], the values for the IC50 at recombinant human Nav1.7 (setting [2]) and at recombinant human Nav1.8 (setting [1]) were 0.344 µM and 0.501 µM, respectively. Moreover, the inhibition in vivo at 30 mg/kg in the test on osteoarthritic rats (OA dose 30 mg/kg) is 98%.

In the case of `O=C(c1ccc2cc(Oc3ccc(C(F)(F)F)cn3)ccc2n1)N1CCN(C2CCC2)CC1` [Example 47, (4-cyclobutylpiperazin-1-yl)(6-{[5-(trifluoromethyl)pyridin-2-yl]oxy}quinolin-2-yl)methanone], the IC50 on recombinant human Nav1.7 (setting [3]) is 1.42 µM; on recombinant human Nav1.8 (setting [1]) it was 0.334 µM. Further, in the test on osteoarthritic rats (OA dose 10 mg/kg), the inhibition in vivo at 10 mg/kg was 30%.

With `CC1(NC(=O)c2ccc3cc(Oc4ccc(C(F)(F)F)cn4)ccc3n2)COC1` [Example 48, N-(3-methyloxetan-3-yl)-6-{[5-(trifluoromethyl)pyridin-2-yl]oxy}quinoline-2-carboxamide], the IC50 at recombinant human Nav1.7 (setting [2]) came out at 4.43 µM; at recombinant human Nav1.8 (setting [1]), 0.774 µM. In addition, the inhibition in vivo at 10 mg/kg in the test on osteoarthritic rats (OA dose 10 mg/kg) came to 41%.

In the case of `N[C@@H]1[C@H]2CN(C(=O)c3ccc4cc(Oc5ccc(C(F)F)cn5)ccc4n3)C[C@@H]12` [Example 49, meso-[(1R,5S,6s)-6-amino-3-azabicyclo[3.1.0]hex-3-yl](6-{[5-(difluoromethyl)pyridin-2-yl]oxy}quinolin-2-yl)methanone], the IC50 at recombinant human Nav1.7 (setting [2]) was 2.27 µM; on recombinant human Nav1.8 (setting [1]), 0.702 µM. In the test on osteoarthritic rats (OA dose 30 mg/kg), the “OA MPE” value was 58%.

With `O=C(NC1CC(F)(F)C1)c1ccc2cc(Oc3ccc(C(F)F)cn3)ccc2n1` [Example 580, N-(3,3-difluorocyclobutyl)-6-{[5-(difluoromethyl)pyridin-2-yl]oxy}quinoline-2-carboxamide], the figures for the IC50 on recombinant human Nav1.7 (setting [3]) and on recombinant human Nav1.8 (setting [1]) were 1.56 µM and 1.14 µM, respectively.

As for `O=C(c1ccc2cc(Oc3ccc(C(F)(F)F)cn3)ccc2n1)N1CCNC[C@@H]1C(F)F` [Example 603, [(2R)-2-(difluoromethyl)piperazin-1-yl](6-{[5-(trifluoromethyl)pyridin-2-yl]oxy}quinolin-2-yl)methanone], the IC50 on recombinant human Nav1.7 (setting [3]) amounted to 1.95 µM; at recombinant human Nav1.8 (setting [1]), 3.67 µM.

In the case of `O=C(c1ccc2cc(Oc3ccc(C(F)(F)F)cn3)ccc2n1)N1CC(NCC(F)(F)F)C1` [Example 621, {3-[(2,2,2-trifluoroethyl)amino]azetidin-1-yl}(6-{[5-(trifluoromethyl)pyridin-2-yl]oxy}quinolin-2-yl)methanone], the half-inhibitory concentration (IC50) on recombinant human Nav1.7 (setting [2]) was determined as 2.69 µM; at recombinant human Nav1.8 (setting [1]), 1.65 µM.

Take `CN(CC(F)F)C(=O)c1ccc2cc(Oc3ccc(C(F)(F)F)cn3)ccc2n1` [Example 622, N-(2,2-difluoroethyl)-N-methyl-6-{[5-(trifluoromethyl)pyridin-2-yl]oxy}quinoline-2-carboxamide]: the IC50 on recombinant human Nav1.7 (setting [3]) came out at 5.4 µM; at recombinant human Nav1.8 (setting [1]), 2.28 µM.

As for `O=C(c1ccc2cc(Oc3ccc(C(F)(F)F)cn3)ccc2n1)N1CC2(CCOCC2)C1` [Example 623, 7-oxa-2-azaspiro[3.5]non-2-yl(6-{[5-(trifluoromethyl)pyridin-2-yl]oxy}quinolin-2-yl)methanone], the figures for the IC50 on recombinant human Nav1.7 (setting [2]) and at recombinant human Nav1.8 (setting [1]) were 4.91 µM and 3.7 µM, respectively.
